Source: patent US12582104B2, “Mutant myocilin disease model and uses thereof” (Regeneron Pharmaceuticals, Inc., priority 2021, dated 2026)

System: SAM-MYOC mice
Test: Intraocular pressure (IOP) in SAM-MYOC mice
Type: in vivo, mouse
Settings: SAM-MYOC mice approximately 10 weeks after AAV2.Y3F-SAM-g4; one drop per eye; IOP at 2, 4, 6, and 24 hours
Protocol: To validate the SAM mice comprising a humanized MYOC locus comprising a Y437H mutation (SAM-MYOC mice), SAM-MYOC mice homozygous or heterozygous for the humanized MYOC locus were treated with AAV2.Y3F-SAM-g4, AAV2.Y3F-SAM-g5, an AAV2.Y3F-SAM-LacZ control, or nothing (naïve). […] This validated the SAM-MYOC mice as a suitable MYOC disease model with increased IOP.
IOP-lowering drugs used to treat glaucoma patients were then tested as a proof-of-concept to determine if they could lower the IOP observed in the SAM-MYOC mice following treatment with SAM-g4. We tested two IOP-lowering drugs: (1) timolol (a beta blocker that suppresses aqueous humor formation); and (2) RHOPRESSA® (a ROCK inhibitor that increases outflow of aqueous humor). […] At 0 hours, the IOP was measured, and each eye received one drop of either timolol or RHOPRESSA®, and IOP was measured at 2, 4, 6, and 24 hours after treatment.
An siRNA targeting human MYOC was then tested to determine if it could lower the high IOP observed in the SAM-MYOC mice following treatment with SAM-g4. SAM-g4 was administered via intracameral (IC) injection at day 0, and baseline IOP was measured. IOP was then measured over the following five weeks. At week five, MYOC siRNA #1 (1 μL, 15 μg dose) was administered via intravitreal (IVT) injection, and IOP was measured at various timepoints over the subsequent weeks. […]

CC(C)(C)NC[C@H](O)COc1nsnc1N1CCOCC1 [timolol]
IOP after IOP-lowering drug: effective at lowering IOP
